Holding throughout (assay type): cell-based
The test system of data set [1] is normal human subcutaneous preadipocytes differentiated into adipocytes. Description: Cytotoxicity of steviol to adipocytes (WST-8 viable cell count). To be noted: for Relative viable cell count (%): 10 days, Control=100%. How it is done: 5×10^5 normal human subcutaneous preadipocytes (Cat. No. PT-5020, Lonza Group AG) were precultured for 6 days in a T75 flask using a growth medium (PBM-2 medium supplemented with 10% FBS, 2 mM L-glutamine, 50 μg/mL gentamycin, and 37 ng/mL amphotericin-B, Cat. No. PT-8002, Lonza Group AG) in a CO2 incubator (37° C., 5% CO2; the same holds true for the description below). The cells were detached using 0.25% trypsin-EDTA, seeded at 10,000 cells/100 μL/well in a 96-well plate using the growth medium, and cultured overnight in a CO2 incubator. On the next day, the medium was replaced with 100 μL of a differentiation medium (PBM-2 medium supplemented with 10% FBS, 2 mM L-glutamine, 50 μg/mL gentamycin, 37 ng/mL amphotericin-B, insulin, dexamethasone, indomethacin, and 3-isobutyl-1-methylxanthine (IBMX), Cat. No. PT-8002, Lonza Group AG: the same holds true for the description below) supplemented with varying concentrations of steviol (0.001, 0.01, 0.1, 1, 10 or 100 μg/mL, dissolved in 0.1% DMSO (final concentration)). The cells were cultured for 10 days in a CO2 incubator to induce their differentiation into adipocytes. On the fourth and seventh days after the differentiation induction, the medium was replaced with a fresh medium (100 μL) having the same composition as above. A vehicle control composed of a differentiation medium supplemented with 0.1% DMSO (final concentration) was used as a negative control. Viable cell count measurement was performed by the WST-8 method. Specifically, the medium of each well after culture was replaced with a differentiation medium (100 μL) supplemented with a 1/10 amount of viable cell count measurement reagent SF, and the cells were incubated in a CO2 incubator. 30 minutes later and 90 minutes later, absorbance (450 nm, reference wavelength: 630 nm) was measured using a plate reader (VARIOSKAN FLASH, Thermo Fisher Scientific Inc.), and absorbance difference per 60 minutes was regarded as a relative viable cell count (Control=100%).

A further data set has as its system HepG2 cells. Put plainly: Cytotoxicity of steviol to hepatocytes (WST-8 viable cell count). To be noted: for Relative viable cell count (%): 24 hours, Control=100%. How it is done: 5×10^5 HepG2 cells (Cat. No. JCRB1054, JCRB) were precultured for 5 days in a T75 flask using a growth medium (DMEM (high glucose, Cat. No. D5796, Sigma-Aldrich Co., LLC) supplemented with 10% FBS (Cat. No. 172012, Sigma-Aldrich Co., LLC) and 1% penicillin-streptomycin (Cat. No. 09367-34, Nacalai Tesque Inc.)) in a CO2 incubator. The cells were detached using 0.25% trypsin-EDTA, seeded at 10,000 cells/100 μL/well to a 96-well plate using the growth medium, and cultured overnight in a CO2 incubator. On the next day, the medium was replaced with 100 μL of a growth medium supplemented with varying concentrations of steviol (0.001, 0.01, 0.1, 1, 10 or 100 μg/mL, dissolved in 0.1% DMSO (final concentration)), and the cells were cultured for 24 hours in a CO2 incubator. A vehicle control composed of a growth medium supplemented with 0.1% DMSO (final concentration) was used as a negative control (Control). Viable cell count measurement was performed by the WST-8 method. Specifically, the medium of each well after culture was replaced with 100 μL of growth medium supplemented with a 1/10 amount of viable cell count measurement reagent SF, and the cells were incubated in a CO2 incubator. 30 minutes later and 90 minutes later, absorbance (450 nm, reference wavelength: 630 nm) was measured using a plate reader (VARIOSKAN FLASH, Thermo Fisher Scientific Inc.), and absorbance difference per 60 minutes was regarded as a relative viable cell count.

Data set [2] concerns adipocytes differentiated from normal human subcutaneous preadipocytes. Description: Sugar uptake test in adipocytes (intracellular 2DG6P, Glucose Uptake-Glo). To be noted: for Relative luminescence intensity (%) (relative intracellular 2DG6P level): 4 hours, DMSO=100%. How it is done: Normal human subcutaneous preadipocytes were precultured using the growth medium in the same manner as in Example 1. The cells were detached using 0.25% trypsin-EDTA, seeded at 10,000 cells/100 μL/well to a 96-well plate using the growth medium, and cultured overnight in a CO2 incubator. On the next day, the medium was replaced with the differentiation medium (100 μL). The cells were cultured for 10 days in a CO2 incubator to induce their differentiation into adipocytes. On the fourth and seventh days after the differentiation induction, the medium was replaced with a fresh differentiation medium (100 μL). Next, the medium was replaced with 100 μLL of a serum-free medium (PBM-2 medium supplemented with 2 mM L-glutamine, 50 μg/mL gentamycin, and 37 ng/mL amphotericin-B, Cat. No. PT-8002, Lonza Group AG), and the cells were cultured for 18 hours in a CO2 incubator. Subsequently, the medium was replaced with 100 μL of a glucose-free serum-free medium (DMEM, no glucose, Cat. No. 11966025, Thermo Fisher Scientific Inc.) supplemented with varying concentrations of steviol (10, 30 or 100 μg/mL, dissolved in 0.1% DMSO (final concentration)), and the cells were cultured for 4 hours in a CO2 incubator. A glucose-free serum-free medium supplemented with 100 μM acadesine (AICAR, Cat. No. A9978, Sigma-Aldrich Co., LLC) was used as a positive control, and a vehicle control composed of a glucose-free serum-free medium supplemented with 0.1% DMSO (final concentration) and a no-addition control composed of only a glucose-free serum-free medium were used as negative controls. After culture, intracellular 2-deoxyglucose-6-phosphate (2DG6P, 2-deoxyglucose (2DG) phosphorylation product) level was measured by the following procedures using Glucose Uptake-Glo Assay kit (Cat. No. J1341, Promega Corp.). The medium of each well was replaced with a DPBS solution (50 μL) supplemented with 1 mM 2DG. After incubation at room temperature for 10 minutes, a stop buffer (25 μL), a neutralization buffer (25 μL), and a 2DG6P detection reagent (100 μL) were added thereto. After incubation at room temperature for 60 minutes, luminescence intensity was measured using a plate reader (VARIOSKAN FLASH, Thermo Fisher Scientific Inc.), and relative luminescence intensity was regarded as a relative intracellular 2DG6P level. Significant difference among the test groups to be compared (no-addition group vs positive control group, vehicle control group vs steviol addition group) was tested by the Student's t test. The two-tailed test was conducted, and P<0.05 was regarded as having significant difference.

Molecules are shown by their SMILES.

`C=C1C[C@@]23CC[C@H]4[C@@](C)(CCC[C@@]4(C)C(=O)O)[C@@H]2CC[C@]1(O)C3` [Steviol, steviol]: the “cytotoxicity to adipocytes (in words)” value in data set [1] (100 μg/mL steviol) is listed as “no particular cytotoxicity to be noted was found”. Also, the “Relative viable cell count (%)” value in data set [1] (steviol 0.01 μg/mL) is recorded as 101.8%; in data set [1] (steviol 0.1 μg/mL) it was 101.7%; in data set [1] (steviol 1 μg/mL), 95.0%; in data set [1] (steviol 10 μg/mL), 103.6%; in data set [1] (steviol 100 μg/mL) it was 93.1%; with HepG2 cells (steviol 0.01 μg/mL), 98.8%. The “Relative viable cell count (%)” value in the data set on HepG2 cells (steviol 0.1 μg/mL) is on record as 98.4%; in the data set with HepG2 cells (steviol 1 μg/mL) it was 95.3%; in the data set on HepG2 cells (steviol 10 μg/mL), 95.6%; in the data set with HepG2 cells (steviol 100 μg/mL), 87.7%. The “cytotoxicity to hepatocytes (in words)” value with HepG2 cells (100 μg/mL steviol) is “no particular cytotoxicity to be noted was found”. Moreover, the “sugar uptake in adipocytes (in words)” value in data set [2] (10, 30 or 100 μg/mL) is listed as “promoted sugar uptake in adipocytes in a concentration-dependent manner”. Further, the “Relative luminescence intensity (%) (relative intracellular 2DG6P level)” value in data set [2] (steviol 10 μg/mL) stood at 109.6%; in data set [2] (steviol 30 μg/mL), 142.5%; in data set [2] (steviol 100 μg/mL) it was 216.2%.

For the origin of these results see patent publication US20230057359A1, “NOVEL USE OF STEVIOL” (SUNTORY HOLDINGS LIMITED, priority 2019, published 2023).
